Where two headings read alike, the source gives them in different places. Each block holds one compound with its values, some of them ahead of it.
Tests used:
[1] = format: in vivo, human; conditions: for AUC0-24h, ratio of geometric mean (95% CI) / Cmax, ratio of geometric mean (95% CI) / Cmin, ratio of geometric mean (95% CI): erlotinib 75 mg QD + ritonavir 200 mg QD versus erlotinib monotherapy 150 mg QD; for AUC0-24h / Cmax / Cmin (trough concentration): steady state, geometric mean (CV%)
CYP3A4 = conditions: remaining part by CYP1A2; cited from earlier work
[2] = Treatment-related adverse events graded according to CTCAE version 5.0; format: in vivo, human; conditions: nine patients
[3] = healthy volunteers, co-administration of ketoconazole; cited from earlier work
[4] = cited from earlier work
[5] = plasma, erlotinib 75 mg QD + ritonavir 200 mg QD
[6] = plasma, erlotinib monotherapy 150 mg QD
[7] = versus erlotinib monotherapy, result in words
[8] = erlotinib 75 mg QD + ritonavir 200 mg QD
[9] = erlotinib monotherapy 150 mg QD

AUC0-24h, ratio of geometric mean (95% CI) [1]: 0.31 (0.15 – 0.62)
Cmax, ratio of geometric mean (95% CI) [1]: 0.28 (0.13 – 0.57)
Cmin, ratio of geometric mean (95% CI) [1]: 0.41 (0.22 – 0.76)
AUC0-24h [1, 5]: 118 (351%) ng*h/mL
Cmax [1, 5]: 7.24 (230%) ng/mL
Cmin (trough concentration) [1, 5]: 4.34 (443%) ng/mL
AUC0-24h [1, 6]: 380 (144%) ng*h/mL
Cmax [1, 6]: 26.1 (141%) ng/mL
Cmin (trough concentration) [1, 6]: 10.5 (162%) ng/mL
Change in AUC0-24h following the combination of erlotinib and ritonavir [1, 7]: statistically significant decrease
Change in Cmax following the combination of erlotinib and ritonavir [1, 7]: statistically significant decrease
Change in Cmin following the combination of erlotinib and ritonavir [1, 7]: statistically significant decrease
Compound: OSI-420

AUC0-24h, ratio of geometric mean (95% CI) [1]: 0.53 (0.34 – 0.83)
Cmax, ratio of geometric mean (95% CI) [1]: 0.48 (0.31 – 0.76)
Cmin, ratio of geometric mean (95% CI) [1]: 0.59 (0.37 – 0.94)
Cmax [1, 5]: 43.7 (134%) ng/mL
Cmin (trough concentration) [1, 5]: 29.4 (263%) ng/mL
AUC0-24h ([1]; plasma, erlotinib 75 mg QD + ritonavir 200 mg QD, nine patients): 0.823 (174%) μg*h/mL
Cmax [1, 6]: 90.0 (107%) ng/mL
Cmin (trough concentration) [1, 6]: 49.5 (152%) ng/mL
AUC0-24h ([1]; plasma, erlotinib monotherapy 150 mg QD, nine patients): 1.55 (120%) μg*h/mL
Change in AUC0-24h following the combination of erlotinib and ritonavir [1, 7]: statistically significant decrease
Change in Cmax following the combination of erlotinib and ritonavir [1, 7]: statistically significant decrease
Compound: C#Cc1cccc(Nc2ncnc3cc(OCCO)c(OCCOC)cc23)c1 [OSI-413]

AUC(0-t) ([1]; human, plasma, oral, 150 mg): 29300 ng·h/mL
Cmin (trough concentration) [1, 5]: 1.06 (165%) μg/mL
Cmin (trough concentration) ([1]; plasma, erlotinib 75 mg QD + ritonavir 200 mg QD, listed as erlotinib): 1.06 µg/mL
Cmax [1, 6]: 1.84 (60%) μg/mL
Cmin (trough concentration) [1, 6]: 1.00 (62%) μg/mL
Compound: C#Cc1cccc(Nc2ncnc3cc(OCCOC)c(OCCOC)cc23)c1 [Erlotinib, erlotinib]
Share of erlotinib metabolized by CYP3A4 (CYP3A4): approximately 70%
Patients experiencing treatment-related adverse events ([2]; combination of erlotinib with ritonavir): 56%
Diarrhea grade 1 or 2, number of patients [2, 8]: 2
Diarrhea ≥ grade 3, number of patients [2, 8]: 0
Nausea grade 1 or 2, number of patients [2, 8]: 2
Nausea ≥ grade 3, number of patients [2, 8]: 0
Number of patients experiencing any AE [2, 8]: 5
Skin rash grade 1 or 2, number of patients [2, 8]: 1
Skin rash ≥ grade 3, number of patients [2, 8]: 0
Diarrhea grade 1 or 2, number of patients [2, 9]: 2
Diarrhea ≥ grade 3, number of patients [2, 9]: 0
Nausea grade 1 or 2, number of patients [2, 9]: 0
Nausea ≥ grade 3, number of patients [2, 9]: 0
Number of patients experiencing any AE [2, 9]: 4
Skin rash grade 1 or 2, number of patients [2, 9]: 3
Skin rash ≥ grade 3, number of patients [2, 9]: 0
Patients with a treatment-related adverse event ([2]; monotherapy erlotinib): 44%
Increase of AUC0-∞ of erlotinib by ketoconazole [3]: approximately a twofold
Increase of Cmax of erlotinib by ketoconazole [3]: approximately a twofold
elimination half-life [4]: approximately 36 h

Cmin (trough concentration) [1, 5]: 0.243 (129%) μg/mL
Compound: CC(C)c1nc(CN(C)C(=O)N[C@H](C(=O)N[C@@H](Cc2ccccc2)C[C@H](O)[C@H](Cc2ccccc2)NC(=O)OCc2cncs2)C(C)C)cs1 [Ritonavir, ritonavir]
